Data set [1] deals with Rattus norvegicus. Nature of the data set: Antiarrhythmic activity in iv dosed aconitine-induced rat arrhythmia model administered 3 to 5 mins prior to aconitine challenge by electrocardiographic method. It is filed as functional.
Data set [2] in a line: Acute toxicity in iv dosed rat. It is filed as organism-based. The conditions noted are these: in vivo.
Data set [3] can be described thus: Antiarrhythmic index, ratio of LD50 for iv dosed rat to ED50 for antiarrhythmic activity in iv dosed aconitine-induced rat arrhythmia model. It is filed as toxicity, organism-based. The conditions noted are these: in vivo, read-out: Ratio LD50/ED50.

Molecules are shown by their SMILES.

For the compound `C=C1[C@H]2C[C@@]3([C@@H]1O)[C@@H](CC2=O)[C@@]12[C@@H](OC(=O)c4ccccc4)CC[C@@]4(C)CN(CC)[C@@H]1[C@@H]3C[C@H]42`, in data set [1], the 50% effective dose (ED50) (as a rule, the midpoint of the dose-response relation) is 0.38 mg/kg. For the same compound, the LD50 – broadly, the dose at which mortality reaches 50% – in data set [2] turned out to be 41 mg/kg. The selectivity ratio in data set [3] was 108.

For `C=C1[C@H]2C[C@@]3([C@@H]1O)[C@@H](CC2=O)[C@@]12[C@@H](OC(C)=O)CC[C@@]4(C)CN(CC)[C@@H]1[C@@H]3C[C@H]42`, it took a dose of 15 mg/kg to reach the 50% effect level in data set [1] (ED50). The LD50 in data set [2] was 150 mg/kg. Also, in data set [3], the selectivity ratio stood at 10.

In the case of `C=C1[C@H]2C[C@@]3([C@@H]1OC(C)=O)[C@@H](CC2=O)[C@@]12[C@@H](OC(C)=O)CC[C@@]4(C)CN(CC)[C@@H]1[C@@H]3C[C@H]42`, the 50% effective dose (ED50) in data set [1] is 18 mg/kg. This compound yielded an LD50 in data set [2] of 131 mg/kg. In data set [3], the selectivity ratio came out at 7.3.

In turn, `C=C1[C@H]2C[C@@]3([C@@H]1O)[C@@H](CC2=O)[C@]12[C@@H]4C[C@H]3[C@H]1N(CC)C[C@]4(C)CC[C@@H]2O` [SONGORINE] came in with a 50% effective dose (ED50) in data set [1] of 7.3 mg/kg. In data set [2], this compound showed a 50% lethal dose (LD50) of 142 mg/kg. Also, the selectivity ratio in data set [3] was 19.

Source of the values: ChEMBL document CHEMBL4152185, “Therapeutic potential of songorine, a diterpenoid alkaloid of the genus Aconitum” (Eur J Med Chem, 2018).
